What is called IC50 is the concentration that gives 50% inhibition. Lower therefore signals greater potency in that assay. Broadly, the inhibition in vivo is how much of the control response was suppressed.

The text below walks through data of ChEMBL document CHEMBL3596162, “Biaryls as potent, tunable dual neurokinin 1 receptor antagonists and serotonin transporter inhibitors” (Bioorg Med Chem Lett, 2015).

Series [1] concerns the target Substance-P receptor (Meriones unguiculatus, UniProt Q5DUB1). Briefly: Displacement of [125I]-substance P from gerbil NK1 receptor expressed in HEK293 cell membranes incubated for 30 mins by liquid scintillation counting method. Further details: species or system Gerbillinae. (In a radioligand displacement assay an active substance lowers the binding of a labelled ligand.)

A short description of series [2]: Displacement of [3H]-citalopram from gerbil SERT expressed in HEK293 cell membranes incubated for 60 mins by liquid scintillation counting method. On the set-up: species or system Gerbillinae.
In a further series the test system is HEK293. Description: Selectivity index, ratio of IC50 for gerbil SERT expressed in HEK293 cell membranes to IC50 for gerbil NK1 receptor expressed in HEK293 cell membranes. Particulars: Gerbillinae. The series is classed as cell-based.
The target in series [3] is Substance-P receptor (Homo sapiens, UniProt P25103). Description: Binding affinity to human NK1 receptor.
Substance-P receptor (Homo sapiens, UniProt P25103), sequence (P25103 whole entry): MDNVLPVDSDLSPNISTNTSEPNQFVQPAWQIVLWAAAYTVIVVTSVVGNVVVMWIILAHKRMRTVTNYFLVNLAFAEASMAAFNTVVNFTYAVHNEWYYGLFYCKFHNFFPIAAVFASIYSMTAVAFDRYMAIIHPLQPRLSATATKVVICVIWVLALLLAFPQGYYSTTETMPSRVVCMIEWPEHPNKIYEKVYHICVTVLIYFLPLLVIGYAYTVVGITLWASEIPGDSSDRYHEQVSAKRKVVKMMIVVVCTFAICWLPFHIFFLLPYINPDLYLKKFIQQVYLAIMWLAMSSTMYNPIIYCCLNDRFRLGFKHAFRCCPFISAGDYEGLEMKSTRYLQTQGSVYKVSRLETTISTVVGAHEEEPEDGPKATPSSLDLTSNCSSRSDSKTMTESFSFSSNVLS
In series [4] the test system is Gerbillinae. Description: Inhibition of foot tapping in gerbil foot tap model at 10 mg/kg, po and treated with 3 pmol, icv GR-73632 and measured for 5 mins after animal regains righting reflex. The series is classed as functional.
Series [5] in a line: Plasma concentration in gerbil foot tap model at 10 mg/kg, po. It counts as ADME, organism-based. The following applies: gerbillinae, in vivo.
The nature of series [6]: Drug concentration in brain of gerbil foot tap model at 10 mg/kg, po. It counts as ADME, organism-based. Particulars: gerbillinae, in vivo, read-out: Drug uptake.
Series [7] in a line: Ratio of drug concentration in brain to plasma of gerbil foot tap model at 10 mg/kg, po. The series is classed as ADME, organism-based. Particulars: gerbillinae, read-out: BPR.
The test system of series [8] is Gerbillinae. Description: In-vivo receptor occupancy at NK1 receptor in gerbil at 3 to 30 mg/kg, po measured after 4 hrs. It counts as functional.
The subject of series [9] is Gerbillinae. Briefly: In-vivo receptor occupancy at SERT in gerbil at 3 to 30 mg/kg, po measured after 4 hrs. The series is classed as functional, organism-based.
The subject of series [10] is Gerbillinae. Briefly: In-vivo receptor occupancy at SERT in gerbil at 3 mg/kg, po measured after 4 hrs. The series is classed as functional.
Series [11] has as its system Gerbillinae. Description: In-vivo receptor occupancy at SERT in gerbil at 30 mg/kg, po measured after 4 hrs. The series is classed as functional.

Molecules are shown by their SMILES.

Substance-P receptor (Meriones unguiculatus, UniProt Q5DUB1), sequence (Q5DUB1 whole entry): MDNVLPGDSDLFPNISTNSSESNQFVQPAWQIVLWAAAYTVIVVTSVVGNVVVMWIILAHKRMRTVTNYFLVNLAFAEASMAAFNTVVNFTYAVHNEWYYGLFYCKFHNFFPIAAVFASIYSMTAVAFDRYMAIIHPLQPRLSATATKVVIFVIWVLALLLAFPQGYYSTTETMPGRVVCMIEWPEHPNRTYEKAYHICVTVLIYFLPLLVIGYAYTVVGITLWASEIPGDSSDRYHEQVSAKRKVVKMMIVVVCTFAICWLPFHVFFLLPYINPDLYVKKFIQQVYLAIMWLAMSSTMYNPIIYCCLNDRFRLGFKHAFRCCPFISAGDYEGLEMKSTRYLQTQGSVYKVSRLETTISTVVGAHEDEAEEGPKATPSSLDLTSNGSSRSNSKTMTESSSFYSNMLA

With `N#Cc1ccc(-c2cc(COCC3(c4ccccc4)CCNCC3)cc(C(F)(F)F)c2)cc1`, the results for the IC50 (at Substance-P receptor [1]; in series [2]; on Substance-P receptor [3]) were 0.45 nM, 4 nM and 0.59 nM, respectively. In addition, the Ratio IC50 in the series with HEK293 is 9. Besides, testing at 10 mg/kg in the series with Gerbillinae [4] gave an inhibition in vivo of 29%. Further, the concentration is 0.365 µM in series [5] and 0.19 µM in series [6]. For the same compound, the Kp in [7] is 0.52.
As for `CN1CCC(COCc2cc(-c3ccc(C#N)cc3)cc(C(F)(F)F)c2)(c2ccccc2)CC1`, the IC50 on Substance-P receptor [1] is 0.29 nM; in [2], 9.5 nM; at Substance-P receptor [3], 0.2 nM. The Ratio IC50 in the series with HEK293 amounted to 33. Moreover, the inhibition in vivo at 10 mg/kg with Gerbillinae [4] was 73%. The concentration was 0.526 µM in [5] and 1.3 µM in [6]. Further, in series [7], the Kp was 2.5. Also, the Occ in the series on Gerbillinae [8] was 88%; in the series on Gerbillinae [9], “Dose-dependent effect”; with Gerbillinae [10] it was 11%; in the series with Gerbillinae [11], 84%.
